According to ChEMBL document CHEMBL1159179, “Glucuronide prodrugs of hydroxy compounds for antibody directed enzyme prodrug therapy (ADEPT) : A phenol nitrogen mustard carbamate” (Bioorg Med Chem Lett, 1997):
pIC50: −log10 of the molar value.

Assays:
LoVo = assay: Tested for the cytotoxic effect in LoVo cells, activity; type: functional, cell-based; conditions: Homo sapiens
[1] = Half life period was determined; type: ADME; conditions: rat

Structure (SMILES): CN(C(=O)Oc1ccc(N(CCCl)CCCl)cc1)c1cc([N+](=O)[O-])ccc1O[C@@H]1O[C@@H](C(=O)O)[C@@H](O)[C@H](O)[C@@H]1O
- pIC50 (LoVo): < 3.08
- half-life [1]: 44 min
